The source made the active and inactive calls.
Experiments:
[1] = target: T1, Apoptotic protease-activating factor 1 (Homo sapiens, UniProt O14727); assay: SAR analysis of small molecule Activators of Apaf-1 in a Fluorescent assay.; format: functional; details: read-out: EC50_Mean;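 also: caspase-3 cleavage of fluorogenic Rh110 DEVD substrate downstream of apoptosome activation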
T1 sequence (O14727 whole entry): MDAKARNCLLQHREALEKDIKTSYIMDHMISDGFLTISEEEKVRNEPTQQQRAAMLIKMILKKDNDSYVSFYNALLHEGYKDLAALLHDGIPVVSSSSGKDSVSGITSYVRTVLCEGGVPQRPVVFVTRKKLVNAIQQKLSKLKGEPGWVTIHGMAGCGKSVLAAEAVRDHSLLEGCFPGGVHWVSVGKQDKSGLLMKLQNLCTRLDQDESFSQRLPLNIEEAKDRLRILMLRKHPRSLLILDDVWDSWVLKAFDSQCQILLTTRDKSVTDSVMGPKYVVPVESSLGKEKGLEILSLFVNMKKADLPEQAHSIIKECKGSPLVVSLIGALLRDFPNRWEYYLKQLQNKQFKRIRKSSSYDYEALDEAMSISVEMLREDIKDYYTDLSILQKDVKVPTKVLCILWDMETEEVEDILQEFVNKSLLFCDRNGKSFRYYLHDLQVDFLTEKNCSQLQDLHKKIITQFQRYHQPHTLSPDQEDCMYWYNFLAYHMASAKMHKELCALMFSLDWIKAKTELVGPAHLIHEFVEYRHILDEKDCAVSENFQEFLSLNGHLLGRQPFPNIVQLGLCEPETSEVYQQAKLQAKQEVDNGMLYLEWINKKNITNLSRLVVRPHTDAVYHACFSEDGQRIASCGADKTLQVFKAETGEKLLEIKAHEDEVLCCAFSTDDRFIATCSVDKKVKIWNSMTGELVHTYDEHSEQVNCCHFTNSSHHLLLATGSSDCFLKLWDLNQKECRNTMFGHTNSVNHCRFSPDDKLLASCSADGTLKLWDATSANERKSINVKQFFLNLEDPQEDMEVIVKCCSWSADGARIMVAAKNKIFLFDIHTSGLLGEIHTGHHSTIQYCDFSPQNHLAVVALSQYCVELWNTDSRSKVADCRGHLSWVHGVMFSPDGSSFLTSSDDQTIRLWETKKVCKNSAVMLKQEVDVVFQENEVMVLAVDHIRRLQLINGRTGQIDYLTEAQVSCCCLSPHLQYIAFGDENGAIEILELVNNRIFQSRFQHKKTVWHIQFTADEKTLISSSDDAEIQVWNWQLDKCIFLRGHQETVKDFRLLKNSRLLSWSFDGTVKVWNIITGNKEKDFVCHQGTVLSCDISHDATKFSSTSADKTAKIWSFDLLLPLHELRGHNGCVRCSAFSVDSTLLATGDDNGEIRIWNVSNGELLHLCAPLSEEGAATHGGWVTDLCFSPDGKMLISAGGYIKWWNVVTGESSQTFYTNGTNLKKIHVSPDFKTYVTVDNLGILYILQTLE

[2] = target: DNA (cytosine-5)-methyltransferase 1 (Homo sapiens, UniProt P26358); assay: DNMT1 methyltransferase inhibitors, confirmation, biochemical, fluorescent molecular beacon (AID 602386); format: functional
Cysteine protease ATG4B = target: T2, Cysteine protease ATG4B (Homo sapiens, UniProt Q9Y4P1); format: functional;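 also: Fluorescence-based dose-response confirmation assay measuring inhibition of ATG4B activity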
T2 sequence (Q9Y4P1 whole entry): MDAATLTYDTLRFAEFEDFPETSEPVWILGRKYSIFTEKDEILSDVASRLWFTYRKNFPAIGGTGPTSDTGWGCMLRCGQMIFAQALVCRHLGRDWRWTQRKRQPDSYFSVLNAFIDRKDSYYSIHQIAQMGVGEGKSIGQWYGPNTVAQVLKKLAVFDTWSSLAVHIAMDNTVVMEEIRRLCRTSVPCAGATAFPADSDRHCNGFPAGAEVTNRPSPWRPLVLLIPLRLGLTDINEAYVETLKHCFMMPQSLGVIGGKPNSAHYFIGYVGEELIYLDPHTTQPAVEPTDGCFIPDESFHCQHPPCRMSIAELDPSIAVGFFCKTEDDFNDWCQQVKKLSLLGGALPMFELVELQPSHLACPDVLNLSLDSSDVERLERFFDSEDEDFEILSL

[3] = target: FAD-linked sulfhydryl oxidase ALR (Homo sapiens, UniProt P55789); assay: inhibitors of human ALR sulfhydryl oxidase, dose response, biochemical, H2O2 detection, luminescence, cherry-pick (AID 493248)
Streptokinase A = target: T3, Streptokinase A (Streptococcus pyogenes serotype M1, UniProt P10520); assay: S. pyogenes streptokinase expression inhibitors, potency, dose response, plasminogen activation absorbance, OD405 (AID 1914); format: functional, Streptococcus pyogenes M1 GAS;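 also: secreted streptokinase activity via plasminogen activation per viability signal from cell pellet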
T3 sequence (P10520 whole entry): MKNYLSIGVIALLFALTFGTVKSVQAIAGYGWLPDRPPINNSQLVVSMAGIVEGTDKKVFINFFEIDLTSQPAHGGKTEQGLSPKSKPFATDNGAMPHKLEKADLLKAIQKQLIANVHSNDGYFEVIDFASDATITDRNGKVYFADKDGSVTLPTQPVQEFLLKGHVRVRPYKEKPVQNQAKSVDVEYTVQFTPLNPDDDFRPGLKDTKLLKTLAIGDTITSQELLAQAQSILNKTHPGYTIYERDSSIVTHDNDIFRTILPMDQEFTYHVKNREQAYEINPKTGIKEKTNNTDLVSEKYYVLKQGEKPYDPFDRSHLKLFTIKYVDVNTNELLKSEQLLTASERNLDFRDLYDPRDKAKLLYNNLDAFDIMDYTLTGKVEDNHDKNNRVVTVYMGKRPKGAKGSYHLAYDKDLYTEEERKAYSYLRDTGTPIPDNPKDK

[4] = system: Streptococcus sp. 'group A'; assay: growth inhibition of control SK(-) GAS strain, dose response, counter-screen for streptokinase expression inhibitor project, luminescence, kanamycin, BacTiterGlo, confirmation (AID 1900); format: functional, organism-based
[5] = HEp-2 cell cytotoxicity, dose response, cytotoxicity control for RSV inhibitor project, HTS (AID 2410); format: functional; details: human respiratory syncytial virus
Genome polyprotein = Genome polyprotein (dengue virus type 2, UniProt P29990); assay: Dengue-2 NS5 methyltransferase inhibitors, primary screen, biochemical, confirmation dose response (AID 588689); format: functional
Phospholipase A2 = Phospholipase A2 (Homo sapiens, UniProt P04054); format: functional;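 also: confirmatory dose-response counterscreen on phospholipase A2, testing hits that came from an ultra-high-throughput screen for ATG4B inhibitors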
Streptococcus = assay: Group A Streptococcus viability loss, dose response, counter-screen for streptokinase expression inhibitor project, luminescence, BacTiterGlo (AID 1915); format: functional, organism-based;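 also: potency for reduction of bacterial viability or growth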
[6] = target: Adenosylmethionine-8-amino-7-oxononanoate aminotransferase (Mycobacterium tuberculosis, UniProt P9WQ81); assay: Mycobacterium tuberculosis BioA enzyme inhibitor Measured in Biochemical System Using Plate Reader - 2163-02_Inhibitor_Dose_CherryPick_Activity.; format: functional, Mycobacterium tuberculosis UT205
[7] = target: T4, Corticotropin-releasing factor receptor 2/Corticotropin-releasing factor-binding protein (Homo sapiens, UniProt P24387+Q13324); assay: activators of CRF receptor 2 with binding protein – uHTS hits, confirmation (AID 602473); format: functional; details: read-out: EC50_Mean
T4 sequence (Q13324 whole entry): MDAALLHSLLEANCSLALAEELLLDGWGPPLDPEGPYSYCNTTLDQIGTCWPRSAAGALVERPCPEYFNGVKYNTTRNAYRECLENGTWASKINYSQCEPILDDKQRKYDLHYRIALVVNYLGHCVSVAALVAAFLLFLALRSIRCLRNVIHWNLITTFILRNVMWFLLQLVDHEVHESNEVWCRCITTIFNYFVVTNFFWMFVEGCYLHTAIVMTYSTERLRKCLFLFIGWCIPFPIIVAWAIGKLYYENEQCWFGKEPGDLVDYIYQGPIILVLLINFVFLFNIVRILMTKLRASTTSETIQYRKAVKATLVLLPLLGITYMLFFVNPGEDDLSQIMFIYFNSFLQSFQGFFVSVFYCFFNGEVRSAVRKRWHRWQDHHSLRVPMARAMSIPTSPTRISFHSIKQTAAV
T4 sequence (P24387 whole entry): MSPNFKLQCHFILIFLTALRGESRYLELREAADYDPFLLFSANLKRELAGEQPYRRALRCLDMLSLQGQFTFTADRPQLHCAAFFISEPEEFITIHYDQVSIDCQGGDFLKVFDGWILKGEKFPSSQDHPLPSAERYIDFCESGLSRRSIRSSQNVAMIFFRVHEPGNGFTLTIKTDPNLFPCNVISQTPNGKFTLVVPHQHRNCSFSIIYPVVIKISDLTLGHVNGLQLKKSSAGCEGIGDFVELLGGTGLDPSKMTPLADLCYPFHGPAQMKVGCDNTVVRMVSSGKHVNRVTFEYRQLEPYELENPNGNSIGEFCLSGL

[8] = target: T4, Corticotropin-releasing factor receptor 2/Corticotropin-releasing factor-binding protein; assay: Dose Response confirmation of uHTS hits for small molecule antagonists of the CRF-binding protein and CRF-R2 receptor complex.; format: functional; details: read-out: IC50_Mean
[9] = growth suppression of PTEN-null colon cells, dose response, cell-based, HCT116 PTEN knockout (AID 1047); format: functional;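 also: HCT116 colon tumor cells with PTEN knocked out; cells exposed to compound for 60 hours before readout; potency for loss of cell viability measured by luminescence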
[10] = growth suppression of beta-catenin-knockout colon cells, dose response, cell-based, HCT116, human colon tumor (AID 1045); format: functional;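 also: HCT116 colon tumor cells with beta catenin knocked out; cells exposed to compound for 60 hours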
[11] = (§1) Counterscreen for antagonists of the orexin 1 receptor (OX1R; HCRTR1): Fluorescence-based cell-based high throughput dose response assay to identify antagonists of the parental CHO cell line. [Related pubchem assays (depositor defined):AID434989, AID435008, AID463079, AID485270, AID492963, AID492964, AID492965, AID493232, AID504699, AID504701]; format: functional
CHO-K1 = assay: as §1, with “Homogeneous time resolved fluorescence (HTRF)-based” for “Fluorescence-based”, “cell-based” for “cell-based high throughput”, “CHO-K1” for “CHO”; format: functional; details: Cricetulus griseus;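 also: potency for inhibition of ATP-stimulated IP1 production as antagonists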
[12] = target: T5, Orexin/Hypocretin receptor type 1 (Homo sapiens, UniProt O43613); assay: (§2) Fluorescence-based cell-based high throughput dose response assay for antagonists of the orexin 1 receptor (OX1R; HCRTR1). [Related pubchem assays (depositor defined):AID434989, AID435008, AID463079, AID485270, AID492963, AID492964, AID492965, AID493232, AID504717, AID504718]; format: functional
T5 sequence (O43613 whole entry): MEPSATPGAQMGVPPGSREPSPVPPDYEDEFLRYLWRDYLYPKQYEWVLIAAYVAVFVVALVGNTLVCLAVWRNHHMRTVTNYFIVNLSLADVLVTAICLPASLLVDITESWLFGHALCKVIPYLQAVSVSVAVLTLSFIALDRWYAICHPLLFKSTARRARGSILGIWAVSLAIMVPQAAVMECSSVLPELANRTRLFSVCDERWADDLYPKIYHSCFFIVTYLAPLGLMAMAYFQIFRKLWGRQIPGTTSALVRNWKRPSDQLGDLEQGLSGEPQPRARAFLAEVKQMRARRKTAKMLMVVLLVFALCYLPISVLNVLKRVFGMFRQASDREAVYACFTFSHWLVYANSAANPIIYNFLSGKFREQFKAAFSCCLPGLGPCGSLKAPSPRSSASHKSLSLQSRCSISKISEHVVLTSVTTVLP

[13] = target: T5, Orexin/Hypocretin receptor type 1; assay: as §2, with “Homogeneous Time Resolved Fluorescence (HTRF)-based” for “Fluorescence-based”; format: functional
Orexin receptor type 2 [14] = target: T6, Orexin receptor type 2 (Homo sapiens, UniProt O43614); assay: Counterscreen assay for antagonists of the orexin 1 receptor (OX1R; HCRTR1): Homogeneous Time Resolved Fluorescence (HTRF)-based cell-based dose response assay for antagonists of the orexin 2 receptor (OX2R; HCRTR2), run by assay provider.; format: functional
T6 sequence (O43614 whole entry): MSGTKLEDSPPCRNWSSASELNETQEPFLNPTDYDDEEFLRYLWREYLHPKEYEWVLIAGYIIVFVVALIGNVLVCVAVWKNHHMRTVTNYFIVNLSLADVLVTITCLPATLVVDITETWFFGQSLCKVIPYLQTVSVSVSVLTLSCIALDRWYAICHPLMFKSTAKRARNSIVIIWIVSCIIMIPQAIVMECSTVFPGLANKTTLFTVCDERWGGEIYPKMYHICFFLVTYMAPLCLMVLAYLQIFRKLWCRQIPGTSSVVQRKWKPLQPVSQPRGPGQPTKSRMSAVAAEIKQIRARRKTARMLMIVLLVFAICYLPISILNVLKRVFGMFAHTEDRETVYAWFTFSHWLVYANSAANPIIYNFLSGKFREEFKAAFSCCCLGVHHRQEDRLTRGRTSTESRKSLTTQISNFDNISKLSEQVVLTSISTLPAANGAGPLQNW

[15] = target: Induced myeloid leukemia cell differentiation protein Mcl-1 (Homo sapiens, UniProt Q07820); format: functional
Orexin receptor type 2 [16] = target: T6, Orexin receptor type 2; assay: Counterscreen assay for antagonists of the orexin 1 receptor (OX1R; HCRTR1): Fluorescence-based cell-based dose response assay for antagonists of the orexin 2 receptor (OX2R; HCRTR2), run by assay provider.; format: functional

FAD-linked sulfhydryl oxidase ALR, sequence (P55789 whole entry): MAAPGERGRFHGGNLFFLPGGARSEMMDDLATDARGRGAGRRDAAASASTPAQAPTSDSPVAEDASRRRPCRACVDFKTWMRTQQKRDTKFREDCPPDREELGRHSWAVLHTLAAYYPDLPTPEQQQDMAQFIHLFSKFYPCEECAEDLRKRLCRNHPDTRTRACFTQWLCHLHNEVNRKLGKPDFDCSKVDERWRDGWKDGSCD
Adenosylmethionine-8-amino-7-oxononanoate aminotransferase, sequence (P9WQ81 whole entry): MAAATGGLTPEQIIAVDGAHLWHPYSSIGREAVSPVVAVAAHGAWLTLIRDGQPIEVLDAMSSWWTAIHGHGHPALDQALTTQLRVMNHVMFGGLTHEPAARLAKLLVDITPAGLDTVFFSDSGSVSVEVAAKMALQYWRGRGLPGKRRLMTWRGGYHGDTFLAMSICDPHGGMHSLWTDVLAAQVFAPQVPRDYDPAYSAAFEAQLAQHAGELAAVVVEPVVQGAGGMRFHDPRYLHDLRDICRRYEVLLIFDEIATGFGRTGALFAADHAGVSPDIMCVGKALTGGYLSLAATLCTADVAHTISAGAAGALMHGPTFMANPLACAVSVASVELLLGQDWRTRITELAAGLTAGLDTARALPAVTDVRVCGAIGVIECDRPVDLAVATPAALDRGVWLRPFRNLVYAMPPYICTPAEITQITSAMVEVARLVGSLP
Phospholipase A2, sequence (P04054 whole entry): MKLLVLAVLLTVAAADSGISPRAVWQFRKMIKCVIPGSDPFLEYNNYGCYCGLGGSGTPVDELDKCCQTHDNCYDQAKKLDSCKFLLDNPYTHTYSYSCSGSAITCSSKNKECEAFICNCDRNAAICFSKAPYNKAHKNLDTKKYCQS
Induced myeloid leukemia cell differentiation protein Mcl-1, sequence (Q07820 whole entry): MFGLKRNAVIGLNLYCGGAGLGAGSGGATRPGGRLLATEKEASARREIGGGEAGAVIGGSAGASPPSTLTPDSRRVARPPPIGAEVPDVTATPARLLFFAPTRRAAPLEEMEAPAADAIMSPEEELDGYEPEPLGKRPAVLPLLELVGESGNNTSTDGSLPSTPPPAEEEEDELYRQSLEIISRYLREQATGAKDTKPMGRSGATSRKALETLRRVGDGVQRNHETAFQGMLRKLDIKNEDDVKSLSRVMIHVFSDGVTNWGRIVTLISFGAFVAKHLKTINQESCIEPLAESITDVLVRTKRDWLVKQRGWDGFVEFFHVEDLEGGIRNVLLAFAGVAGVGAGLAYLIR
Genome polyprotein, sequence (P29990 2492-3391 limits assumed): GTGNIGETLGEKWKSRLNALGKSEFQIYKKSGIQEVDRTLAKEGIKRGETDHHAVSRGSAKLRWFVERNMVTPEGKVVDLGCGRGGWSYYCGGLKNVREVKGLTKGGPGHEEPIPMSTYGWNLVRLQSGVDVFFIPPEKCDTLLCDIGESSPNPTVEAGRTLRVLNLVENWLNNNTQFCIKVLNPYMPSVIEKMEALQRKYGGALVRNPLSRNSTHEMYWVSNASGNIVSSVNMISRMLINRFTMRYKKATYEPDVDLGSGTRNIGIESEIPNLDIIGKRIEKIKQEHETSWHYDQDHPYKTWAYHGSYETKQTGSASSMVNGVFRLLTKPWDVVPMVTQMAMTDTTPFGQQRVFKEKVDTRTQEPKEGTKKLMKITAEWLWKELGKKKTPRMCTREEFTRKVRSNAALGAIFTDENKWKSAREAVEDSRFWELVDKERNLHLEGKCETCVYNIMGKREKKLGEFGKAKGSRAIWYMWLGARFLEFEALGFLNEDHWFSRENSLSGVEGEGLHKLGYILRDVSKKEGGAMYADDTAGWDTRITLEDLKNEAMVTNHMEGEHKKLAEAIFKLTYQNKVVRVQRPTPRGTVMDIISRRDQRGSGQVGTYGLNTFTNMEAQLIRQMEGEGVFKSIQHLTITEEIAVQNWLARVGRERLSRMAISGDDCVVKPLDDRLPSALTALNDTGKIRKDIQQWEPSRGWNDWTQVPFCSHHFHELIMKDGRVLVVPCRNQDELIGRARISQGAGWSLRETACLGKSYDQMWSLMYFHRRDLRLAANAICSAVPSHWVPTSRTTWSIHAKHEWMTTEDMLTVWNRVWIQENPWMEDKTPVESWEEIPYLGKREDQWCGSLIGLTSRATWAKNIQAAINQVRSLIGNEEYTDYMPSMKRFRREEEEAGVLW
DNA (cytosine-5)-methyltransferase 1, sequence (P26358 whole entry): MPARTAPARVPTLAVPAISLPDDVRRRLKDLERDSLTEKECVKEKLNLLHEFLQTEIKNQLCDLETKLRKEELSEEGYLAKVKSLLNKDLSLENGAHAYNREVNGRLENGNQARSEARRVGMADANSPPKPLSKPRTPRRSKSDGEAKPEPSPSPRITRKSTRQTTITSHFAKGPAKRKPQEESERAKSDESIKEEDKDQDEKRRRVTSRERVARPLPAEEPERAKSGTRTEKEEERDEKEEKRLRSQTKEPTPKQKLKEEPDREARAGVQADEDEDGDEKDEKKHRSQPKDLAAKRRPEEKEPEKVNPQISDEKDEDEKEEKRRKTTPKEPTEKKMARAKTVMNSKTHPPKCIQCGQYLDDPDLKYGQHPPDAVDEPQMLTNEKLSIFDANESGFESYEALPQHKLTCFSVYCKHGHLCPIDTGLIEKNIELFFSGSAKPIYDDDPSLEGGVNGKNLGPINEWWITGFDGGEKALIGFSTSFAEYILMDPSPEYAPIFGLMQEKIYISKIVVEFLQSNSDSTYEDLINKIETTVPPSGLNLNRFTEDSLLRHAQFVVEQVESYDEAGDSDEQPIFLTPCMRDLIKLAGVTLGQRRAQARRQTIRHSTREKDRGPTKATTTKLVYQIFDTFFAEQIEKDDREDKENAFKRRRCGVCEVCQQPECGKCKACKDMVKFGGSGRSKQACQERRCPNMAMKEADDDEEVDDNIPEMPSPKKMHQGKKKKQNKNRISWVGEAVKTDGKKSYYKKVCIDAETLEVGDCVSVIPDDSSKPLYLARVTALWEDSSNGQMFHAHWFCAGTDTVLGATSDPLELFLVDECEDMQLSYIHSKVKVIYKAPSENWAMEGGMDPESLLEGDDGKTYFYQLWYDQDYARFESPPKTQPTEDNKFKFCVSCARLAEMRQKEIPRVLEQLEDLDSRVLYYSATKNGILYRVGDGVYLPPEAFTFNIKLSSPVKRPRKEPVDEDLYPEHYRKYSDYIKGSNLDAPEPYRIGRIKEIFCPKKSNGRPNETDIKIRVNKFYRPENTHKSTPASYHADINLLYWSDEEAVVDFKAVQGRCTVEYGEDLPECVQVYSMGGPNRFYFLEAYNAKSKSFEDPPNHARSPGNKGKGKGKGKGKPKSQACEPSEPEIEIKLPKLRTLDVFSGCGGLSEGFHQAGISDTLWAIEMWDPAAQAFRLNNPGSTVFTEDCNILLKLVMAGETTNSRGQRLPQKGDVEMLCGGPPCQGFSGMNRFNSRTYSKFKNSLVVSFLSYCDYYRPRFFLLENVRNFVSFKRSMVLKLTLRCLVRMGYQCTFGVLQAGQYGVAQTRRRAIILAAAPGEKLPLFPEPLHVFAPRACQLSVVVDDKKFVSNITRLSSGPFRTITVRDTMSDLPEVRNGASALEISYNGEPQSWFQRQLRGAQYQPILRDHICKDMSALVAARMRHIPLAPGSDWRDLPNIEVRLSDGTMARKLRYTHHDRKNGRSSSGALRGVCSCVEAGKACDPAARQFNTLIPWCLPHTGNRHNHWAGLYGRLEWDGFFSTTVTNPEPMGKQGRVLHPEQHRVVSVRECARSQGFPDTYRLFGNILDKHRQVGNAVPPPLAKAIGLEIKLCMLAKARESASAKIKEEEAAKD

O=C(C1CC(c2ccc(F)cc2)=NO1)N1CCCc2ccccc21 (configuration not stated)
EC50 [1]: > 100 µM (inactive)

O=C(O)CN1C(=O)/C(=C\c2cc(Br)ccc2OCc2ccc(Cl)cc2)SC1=S
IC50 [2]: 7.36 µM (active) | IC50 (Cysteine protease ATG4B): 7.13 µM (active) | AC50 [3]: 1.58 µM (active) | EC50 (Streptokinase A): > 50 µM (not active) | EC50 [4]: 1.58 µM (active) | CC50 [5]: 14.9 µM (active) | IC50 (Genome polyprotein): 24.8 µM (active) | IC50 (Phospholipase A2): 4.68 µM (active) | EC50 (Streptococcus): 3.08 µM (active)

O=C(Nc1ccc2snnc2c1)N1CCN(c2ccccc2)CC1
AC50 [3]: 0.913 µM (active) | AC50 [6]: 0.0986 µM (active)

COc1ccc(/C=C2\CCc3ccccc3C2=O)c(OC)c1OC
EC50 [7]: > 53 µM (inactive) | IC50 (Cysteine protease ATG4B): 38.6 µM (inactive) | IC50 [8]: > 47.1 µM (inactive) | IC50 (Phospholipase A2): 31.7 µM (inactive)

Cc1nc(-c2cccnc2)sc1C(=O)Nc1cccc(C(F)(F)F)c1
EC50 [9]: 15.7 µM (active) | EC50 [10]: 26.8 µM (active) | AC50 [6]: 3.76 µM (active)

Sc1nnc(-c2cc(-c3ccccc3)[nH]n2)n1/N=C/c1c2ccccc2cc2ccccc12
IC50 [11]: > 49.8 µM (inactive) | IC50 (CHO-K1): > 66.2 µM (inactive) | IC50 [12]: 23.7 µM (inactive) | IC50 [13]: 0.585 µM (active) | IC50 (Orexin receptor type 2 [14]): > 50 µM (inactive) | IC50 [15]: 6.05 µM (not active) | IC50 (Orexin receptor type 2 [16]): > 88.8 µM (inactive)

COc1ccc(N2C(=O)CC3(CC(c4ccccc4F)=NO3)C2=O)cc1 (configuration not stated)
EC50 [1]: > 100 µM (inactive)

Source: ChEMBL document CHEMBL1201862, “PubChem BioAssay data set” (2004)
